Read-outs that look alike come from different tables or passages of the source.
Columns and labels:
[1] = Solid stability test, influence factors (high temperature, high humidity); assay type: physicochemical
Description: The sample placed under a high temperature condition was sealed and left to stand in a stability test chamber at 60° C. After 10 days, the sample was taken and tested for solid purity and crystal form. The sample placed under a high humidity condition was left to stand at room temperature and 92.5% RH humidity (the mouth of the sample bottle was wrapped with a layer of sealing film and 15˜20 small holes were evenly punched in the sealing film), and the samples were taken and tested for solid purity and crystal form after 5 days/10 days, respectively.

[2] = Accelerated stability test of solid; assay type: physicochemical; conditions: for Purity: HPLC area purity
Excerpt: Samples were respectively taken at 1 month, 2 months and 3 months to test the solid chemical purity (HPLC area purity) and crystal form.

[3] = Cassette pharmacokinetic test in mice (plasma, brain, CSF); assay type: in vivo, male CD-1 mice
Description: The pharmacokinetic behaviors of the compounds of the present invention in mice were studied and the pharmacokinetic properties thereof were evaluated.

[4] = Pharmacokinetic test in mice; assay type: in vivo; conditions: mouse, plasma; PO (10 mL/kg [sic]) vs IV 3 mg/kg, male CD-1 mice; read-out: Bioavailability F %
Description: The drug concentrations of the compounds in plasma at different time points were determined by LC/MS/MS method after single intravenous (IV) and intragastric (PO) administration of the compounds to 7-9 week old male CD-1 mice as the test animals. The pharmacokinetic behaviors of the compounds of the present invention in mice were studied and pharmacokinetic properties thereof were evaluated.
The compounds were prepared into clear solutions using 5% DMSO+10% solutol+85% water as a solvent for administration in IV (intravenous injection) and PO (gavage) groups. The administration dosage of each compound was 3 mg/kg for the IV group and […] for the PO group.

[5] = Room temperature/92.5% RH, 5 days
[6] = Room temperature/92.5% RH, 10 days
[7] = PO @ 3 mpk, cassette, brain, 2 h
[8] = mouse, plasma, 1 mg/kg, IV @ 1 mpk, cassette, male CD-1 mice, read-out: Apparent Distribution Volume Vd
[9] = mouse, plasma, 1 mg/kg, IV @ 1 mpk, cassette, male CD-1 mice, read-out: Area under Curve AUC0-inf
[10] = mouse, plasma, 1 mg/kg, IV @ 1 mpk, cassette, male CD-1 mice, read-out: Half-life T1/2 (converted)
[11] = mouse, plasma, 1 mg/kg, IV @ 1 mpk, cassette, male CD-1 mice, read-out: Initial Concentration C0
[12] = mouse, plasma, 3 mg/kg, PO @ 3 mpk vs IV @ 1 mpk, cassette, male CD-1 mice, read-out: Bioavailability F %
[13] = mouse, plasma, 3 mg/kg, PO @ 3 mpk, cassette, male CD-1 mice, read-out: Area under Curve AUC0-inf
[14] = mouse, plasma, 3 mg/kg, PO @ 3 mpk, cassette, male CD-1 mice, read-out: Peak Concentration Cmax
[15] = mouse, plasma, 3 mg/kg, PO @ 3 mpk, cassette, male CD-1 mice, read-out: Time to Peak Tmax
[16] = male, CD-1, mouse, in vivo, iv, 1 mg/kg
[17] = male, CD-1, mouse, in vivo, po, 3 mg/kg

With `O=C1NC2(CC2)COc2ncc(F)cc2[C@H]2CCON2c2ccn3ncc1c3n2` the “Test Results Purity” value ([1]; 60° C, sealed, 10 days) was 100.0%, the “Test Results Crystal Form” value ([1]; 60° C, sealed, 10 days, XRPD) was “Crystal Form C” and the “Test Results Relative Purity*” value ([1]; 60° C, sealed, 10 days, purity of stability sample/purity of starting sample x100%) was 100.0%. For the same compound, the “Test Results Crystal Form” value [1, 5] was “Crystal Form C”, the “Test Results Purity” value [1, 5] was 100.0% and the “Test Results Relative Purity*” value [1, 5] was 100.0%. The “Test Results Crystal Form” value [1, 6] was “Crystal Form C”, the “Test Results Purity” value [1, 6] was 100.0% and the “Test Results Relative Purity*” value [1, 6] was 100.0%. For the same compound, the “Relative Purity*” value ([2]; 40° C./75% RH, 1 month) was 100.0, the Purity ([2]; 40° C./75% RH, 1 month) was 100.0 and the “Relative Purity*” value ([2]; 40° C./75% RH, 2 months) was 100.0. The Purity ([2]; 40° C./75% RH, 2 months) was 100.0, the “Relative Purity*” value ([2]; 40° C./75% RH, 3 months) was 100.0 and the Purity ([2]; 40° C./75% RH, 3 months) was 100.0. For the same compound, the “Relative Purity*” value ([2]; 60° C./75% RH, 1 month) was 99.9, the Purity ([2]; 60° C./75% RH, 1 month) was 99.9 and the “Relative Purity*” value ([2]; 60° C./75% RH, 2 months) was 100.0. The Purity ([2]; 60° C./75% RH, 2 months) was 100.0, the “Relative Purity*” value ([2]; 60° C./75% RH, 3 months) was 100.0 and the Purity ([2]; 60° C./75% RH, 3 months) was 100.0.

In the case of `O=C(Nc1cnn2ccc(N3CCC[C@@H]3c3cc(F)ccc3F)nc12)N1CC[C@H](O)C1` [LOXO-101, Larotrectinib], the “Drug Concentration in Cerebrospinal Fluid at 0.5 h” value ([3]; PO @ 3 mpk, cassette, CSF) is reported as 15 nmol/kg, the “Drug Concentration in Cerebrospinal Fluid at 2 h” value ([3]; PO @ 3 mpk, cassette, CSF, 2 h) is reported as 3 nmol/kg and the “Drug Concentration in Brain at 0.5 h” value ([3]; PO @ 3 mpk, cassette, brain) is reported as 40 nmol/kg. For the same compound, the “Drug Concentration in Brain at 2 h” value [3, 7] was 20 nmol/kg, the Vd [3, 8] was 1.57 L/kg and the AUC(0-inf) [3, 9] was 1.72 µM·h. It also gave a half-life [3, 10] of 72.6 min, a C0 [3, 11] of 2380 nM and a bioavailability [3, 12] of 51%. It also gave an AUC(0-inf) [3, 13] of 2.72 µM·h, a Cmax [3, 14] of 1350 nM and a Tmax [3, 15] of 30 min. It also gave a bioavailability [4] of 28%.

Compound `C[C@@H]1CCc2ncc(F)cc2[C@H]2CCCN2c2ccn3ncc(c3n2)C(=O)N1` [LOXO-195, reference compound] has a bioavailability [4] of 74%.

In the case of `CN1CCN(c2ccc(C(=O)Nc3n[nH]c4ccc(Cc5cc(F)cc(F)c5)cc34)c(NC3CCOCC3)c2)CC1` [RXDX-101, Entrectinib], the AUC(0-inf) [3, 16] is reported as 3.77 µM·h, the C0 [3, 16] is reported as 2810 nM and the Vd [3, 16] is reported as 1.24 L/kg. For the same compound, the half-life [3, 16] was 116 min, the AUC(0-inf) [3, 17] was 3.26 µM·h and the Cmax [3, 17] was 586 nM. The Tmax [3, 17] was 45 min, the bioavailability [3, 17] was 23% and the “Drug Concentration in Brain at 2 h” value ([3]; male, CD-1, mouse, in vivo, po, 3 mg/kg, 2 h) was 30 nmol/kg.

In the case of `C[C@H]1CNC(=O)c2cnn3ccc(nc23)N[C@H](C)c2cc(F)ccc2O1` [TPX-0005], the “Drug Concentration in Cerebrospinal Fluid at 0.5 h” value ([3]; PO @ 3 mpk, cassette, CSF) is reported as 8 nmol/kg, the “Drug Concentration in Brain at 0.5 h” value ([3]; PO @ 3 mpk, cassette, brain) is reported as 50 nmol/kg and the “Drug Concentration in Brain at 2 h” value [3, 7] is reported as 41 nmol/kg. The Vd [3, 8] was 2.63 L/kg, the AUC(0-inf) [3, 9] was 2.86 µM·h and the half-life [3, 10] was 221 min. It also gave a C0 [3, 11] of 2250 nM, a bioavailability [3, 12] of 64% and an AUC(0-inf) [3, 13] of 5.49 µM·h. It also gave a Cmax [3, 14] of 1540 nM and a Tmax [3, 15] of 45 min.

Source: patent publication US20220289765A1, “CRYSTAL OF CARCINOGENIC FUSED KINASE INHIBITOR AND APPLICATIONS THEREOF” (Simcere Pharmaceutical Co., Ltd., priority 2019, published 2022)
